Data reported in article PMC10299588, “Bromotyrosine-Derived Metabolites from a Marine Sponge Inhibit Pseudomonas aeruginosa Biofilms” (International Journal of Molecular Sciences, 2023).

Experiments:
Format in all cases: cell-based, Pseudomonas aeruginosa
[1] = system: planktonic P. aeruginosa PAO1; experiment: Minimum inhibitory concentration (MIC) determination; settings: for antimicrobial activity against P. aeruginosa PAO1: up to the highest concentrations applied
Method: The minimum inhibitory concentration (MIC) of compounds and antibiotics were performed as previously described, with minor modification. […] Three antibiotics, including tobramycin, ciprofloxacin, and meropenem, were dissolved in water and filter sterilized. Ten microliters of two-fold serially diluted antibiotics were transferred to a 96-well Costar plate (Corning Inc., Corning, MA, USA) followed by the addition of 90 µL of diluted cultures. After an 18-h incubation at 37 °C in the static condition, optical density OD600 was monitored using a Synergy 2 microplate reader (BioTek, Winooski, VT, USA). […] The MIC was determined as the lowest concentrations of antibiotics that inhibit complete bacterial growth compared to growth control.

[2] = system: PAO1ΔpelF (Pel deletion mutant); experiment: Biofilm inhibition assay (OD600 growth and resazurin biofilm viability)
Method: (§1) Figure 2 Biofilm assays to identify compounds that prevent biofilm formation. Biofilm inhibition assay. P. aeruginosa cultures were seeded into 384-well plates after dispensing compounds and antibiotics. The plates were incubated for 24 h at 37 °C followed by recording bacterial growth (OD600) and measuring the viability of biofilm bacteria using resazurin.
(§2) The overnight cultures at 37 °C in LB medium were washed once with sterile saline 0.9% (w/v) and adjusted to an OD600 of 0.05, and 1% inoculum was transferred into a fresh LB medium. Following incubation at 37 °C, 200 rpm for 6–6.5 h to reach the mid-log phase, the cells were washed once with sterile saline 0.9% and diluted to an OD600 of 0.01. Then, 45 µL aliquots were dispensed into 384-well plates (Greiner Bio-One, Kremsmünster, Austria, catalog no. 781091). In biofilm inhibition assays, test compounds (5 µL) were loaded prior to the addition of bacteria. The plates were incubated for 24 h at 37 °C in static conditions. The effects of compounds on bacterial growth and viability of biofilm bacteria were determined by the OD600 and resazurin metabolic assay, respectively. The final concentrations of DMSO in the assays were 1–2%. The negative controls or untreated cultures consisted of inoculum and different concentrations of DMSO. Antibiotic ciprofloxacin (0.25 µg/mL and 25 µg/mL) was used as positive controls. The initial OD600 and final OD600 were read before incubation at 37 °C and after 24 h incubation, respectively, followed by assessment of biofilm viability by resazurin metabolic assay. The experiments were carried out with three technical replicates and repeated at least twice. The growth inhibition was calculated as a function of the percentage of the total bacterial inhibition using Equation (1), where AB is the OD600 of LB medium, and AT0 and ATf are the OD600 recorded at inoculating time and at the end of the assay. (1) % Inhibition=100 × [ 1 − [OD600 (Asample Tf− Asample T0)−(AB Tf − AB T0)/OD600 (Anegative control Tf− Anegative control T0)−(AB Tf − AB T0)]]
(§3) Resazurin sodium salt (Sigma-Aldrich, St. Louis, MI, USA) was dissolved in Milli-Q water at 0.2% (w/v) and filter sterilized. The solution was stored at −20 °C in the dark. The assay was performed as previously described with modification. The cultures were withdrawn, and the plates were washed three times with sterile water using the plate washer (BioTek). To remove the remaining water in the wells, the plates were tapped with autoclaved paper towels. An amount of 50 µL of diluted RSZ solution in LB medium was added into each well, followed by incubation at 37 °C for 5–6 h. A microplate reader (BioTek Synergy 2) was used to measure the fluorescence intensity (excitation 530 nm, emission 590 nm). Data collected were determined as a function of fluorescence percentage using Equation (2), where FB is the fluorescence of the diluted RSZ solution in LB medium in the absence of P. aeruginosa cells. (2) % Inhibition=[(Fnegative control −FB )−(Fsample −FB )/(Fnegative control − FB )]×100

[3] = system: PAO1ΔpslA (Psl deletion mutant); experiment: as above
Method: as §1, §2, §3

[4] = system: PDO300 (mucoid, alginate-overproducing mutant); experiment: as above
Method: as §1, §2, §3

[5] = system: PDO300Δalg8 (alginate deletion mutant); experiment: as above
Method: as §1, §2, §3

[6] = system: wild-type P. aeruginosa PAO1; experiment: as above
Method: as §1, §2, §3

[7] = compound 69.1 µg/mL + ciprofloxacin 1/4 MIC (0.0625 µg/mL)
[8] = compound 86.2 µg/mL + ciprofloxacin 1/3 MIC (0.083 µg/mL), 24 h

COc1c(Br)cc(/C=C/C(=O)NCCCNCCCCNCCCNC(=O)/C=C/c2cc(Br)c(OC)c(Br)c2)cc1Br [Compound 3, ianthelliformisamine C]
MIC ([1]; Pseudomonas aeruginosa, planktonic (free-living) PAO1, LB medium, 18 h, 37 °C): 53.1 µg/mL
biofilm response (reduction) ([2]; combinations of compound with ciprofloxacin): ~ 60%
synergistic interaction with ciprofloxacin, planktonic forms and biofilms ([2]; compound 53.1 µg/mL): negligible synergistic interactions
interaction with ciprofloxacin on biofilm ([2]; compound 106.2 µg/mL, ciprofloxacin 1/4 MIC): antagonized
biofilm response (reduction) ([2]; compound alone 106.2 µg/mL): ~ 40%
planktonic growth inhibition ([2]; compound alone 106.2 µg/mL): independently inhibited planktonic growth
synergistic interaction with ciprofloxacin, planktonic forms and biofilms ([3]; compound 53.1 µg/mL): negligible synergistic interactions
biofilm inhibition ([3]; compound 106.2 µg/mL + sub-lethal doses of ciprofloxacin): ~ 100%
killing of planktonic and biofilm populations ([3]; compound alone 106.2 µg/mL): completely killed
planktonic growth inhibition ([3]; compound alone 106.2 µg/mL): independently inhibited planktonic growth
effect on free-living cells ([4]; compound alone): eradicated
reduction of biofilm viability ([4]; compound alone): ~ 100%
effect on free-living cells ([5]; compound alone): eradicated
reduction of biofilm viability ([5]; compound alone): 80%
synergistic interaction with ciprofloxacin, planktonic forms and biofilms ([6]; compound 53.1 µg/mL): negligible synergistic interactions
planktonic growth inhibition ([6]; compound alone 106.2 µg/mL): independently inhibited planktonic growth
killing of biofilm bacteria ([6]; compound alone, 24 h): ≤ 60%
killing of free-living bacteria ([6]; compound alone, 24 h): up to 30%

COc1c(Br)cc(/C=C/C(=O)NCCCNCCCCN)cc1Br [Compound 2, ianthelliformisamine B]
antimicrobial activity against P. aeruginosa PAO1 [1]: no antimicrobial activity
improvement of biofilm suppression by addition of ciprofloxacin ([2]; ciprofloxacin 1/3 MIC added): 20%
improvement of biofilm suppression by addition of ciprofloxacin ([2]; ciprofloxacin 1/4 MIC added): 13%
growth inhibition and antibiofilm activity [2, 7]: caused growth inhibition and antibiofilm activity
interaction with ciprofloxacin ([3]; ciprofloxacin 1/3 and 1/4 MIC): no synergistic interaction
effect on growth and biofilm formation ([3]; compound alone): marginal effects
blockage of cellular progression (growth) ([4]; compound alone): > 50%
blockage of cellular progression (growth) ([4]; in the presence of ciprofloxacin at 1/3 and 1/4 MICs): > 70%
survival compromised ([5]; compound + ciprofloxacin at 1/3 MIC): 60%
survival compromised ([5]; compound + ciprofloxacin at 1/4 MIC): 40%
susceptibility of biofilms ([5]; compound + ciprofloxacin at 1/4 and 1/3 MIC): much less susceptible
growth inhibition and antibiofilm activity [6, 7]: caused growth inhibition and antibiofilm activity
antimicrobial activity / prevention of biofilm formation ([6]; compound alone, 24 h): did not yield any antimicrobial activity and/or prevented biofilm formation

COc1c(Br)cc(/C=C/C(=O)NCCCNCCCCNCCCN)cc1Br [Compound 1, ianthelliformisamine A]
antimicrobial activity against P. aeruginosa PAO1 [1]: no antimicrobial activity
growth disruption [2, 8]: > 90%
prevention of biofilm formation [2, 8]: > 90%
biofilm effect ([4]; compound 43.1 µg/mL + ciprofloxacin 1/3 and 1/4 MICs): approximately 100%
biofilm effect ([4]; compound alone at 43.1 µg/mL): 20%
growth inhibition ([4]; compound alone at 43.1 µg/mL and 86.2 µg/mL): > 70%
reduction of biofilm formation ([4]; compound alone at 86.2 µg/mL): ~ 80%
activity against biofilm bacteria [5]: < 60%
effect on planktonic counterparts [5]: significant death
growth disruption [6, 8]: > 90%
prevention of biofilm formation [6, 8]: > 90%
antimicrobial activity / prevention of biofilm formation ([6]; compound alone, 24 h): did not yield any antimicrobial activity and/or prevented biofilm formation
